In patent publication US10632101B2, “Methods and compositions for supporting endogenous systems related to life span” (USANA Health Sciences, Inc., priority 2016, dated 2020):

Key:
human NF-κB = assay: NF-κB reporter cell assay, antagonist mode; format: cell-based; conditions: 2.54 μg/ml
mTOR = biological target: T1, mTOR (Homo sapiens, UniProt P42345); conditions: cited from earlier work
T1 construct: host or cells: isolated cells in culture (not specified)

Nrf2 = Nrf2 signaling fluorescent reporter assay in human retinal epithelial cell line; format: cell-based
Experimental: The assays were carried out with a fluorescent reporter assay that utilized a human retinal epithelial cell line. The assays also included validation by RT-PCR (reverse transcription polymerase chain reaction) of Nrf2 target genes. The human retinal epithelial cell line was purchased from ATCC (American Type Cell Culture, Manassas, Va.) and was configured to function as a fluorescent reporter assay. Test solutions of each of the alpha lipoic acid, resveratrol, curcumin, EGCG, Olivol®, rutin, quercetin, and hesperetin were prepared by serial dilution. Control solutions were also prepared. Positive control solutions of a known Nrf2 agonist, L-sulphoraphane was also prepared. Each test solution was then assayed for Nrf2 signaling activity using the fluorescent reporter assay and compared to control assays. The positive control solutions were also tested.

[1] = system: NF-κB reporter cells (HEK293); assay: Live cell multiplex read-out in the NF-κB antagonist assay; format: cell-based, human
Experimental: Various receptor assays were carried out for test compounds corresponding to ingredients of the nutritional supplement composition. In general, the receptor assays utilized reporter cells that either expressed a native receptor or a receptor hybrid. The receptor hybrids were engineered so that the native N-terminal DNA binding domain (DBD) was replaced with a yeast Gal4 DBD. The reporter cells expressed a hybrid receptor comprising either the native receptor (Nrf2 and NF-κB) or the N-terminal Gal4 DNA binding domain fused to the ligand binding domain of the specific human nuclear receptor (PPARα, PPARδ, and PPARγ). The reporter gene (e.g., firefly luciferase) was functionally linked to either upstream receptor-specific response elements (GRE) or the Gal4 upstream activation sequence (UAS). A summary of the receptors, the reporter cells used for each particular receptor assay, and the reference compounds used to confirm performance of the receptor assays are indicated below in Table 4.
A vehicle control was prepared. […] After incubation, fluorescence was measured to determine a relative number of live cells per test well.

C. elegans strain CB5586 = assay: Phenotypic lifespan screening in C. elegans; format: in vivo
Experimental: Dilutions of the test formulations were applied to individual populations of C. elegans and the lifespan of each population was monitored. Any changes in the lifespan of an individual population compared to a control population were recorded and correlated to the respective test formulation (N356 or N357) and the respective dilution (0.1 mg/ml, 1 mg/ml, and 10 mg/ml).
The N256 and N357 formulations were each prepared as individual 100 mg/ml stock solutions in dimethyl sulfoxide (DMSO). Serial dilutions of each stock solution were then prepared at 0.1 mg/ml, 1 mg/ml, and 10 mg/ml in DMSO. Control solutions of DMSO only were also prepared. Synchronous aged adult populations of C. elegans strain CB5586 worms were prepared. The CB5586 strain comprises a pharyngeal GFP (green fluorescent protein) tag and a mutation in the bus-5 gene. The pharyngeal GFP tag allows for fluorescent images of the worm populations to be taken. The mutation in the bus-5 gene causes the loss of normal cuticle antigens that permits the cuticle of the worms to become permeable to the test formulations and allow direct uptake of the test formulations to avoid interaction of the test formulations with protective mechanisms of the gut channel. Each serial dilution of each test formulation was added to a separate population of the prepared worms. The control solutions were also added to separate populations of the prepared worms. The populations of the prepared worms were then maintained on standard nematode growth media (NGM) agar plates at 20° C. with sufficient food (Escherichia coli strain OP-50).
Each worm population was then monitored by fluorescent imaging to determine the number of living and dead worms as a function of time. The fluorescent imaging was analyzed by software that recognized and counted worms based on their fluorescent intensity compared to background fluorescence. […] The ability to distinguish between living and dead worms allowed the number of living worms and a cumulative number of dead worms to be monitored against time. Worm populations from a selection of fluorescent images were manually checked to verify that the software had accurately counted the number of living and dead worms.
The counts of the living and dead worms as a function of time were then analyzed for each of the worm populations and used to prepare Kaplan-Meier survival curves and associated statistics for each of the worm populations. […] The median lifespan is shown as the length of time after the last mitotic division that 50% of the test population remains viable when compared to the control population. The maximum lifespan extension is shown as the length of time after the last mitotic division that 5% of the test population remains viable when compared to the control population.
The counts of the living and dead worms as a function of time and the Kaplan-Meier survival curves and the associated statistics were then analyzed for each of the worm populations. The analysis included determining mean and median lifespan. The analysis included a non-parametric test, the Log-Rank test, which compares two survival functions for the overall lifespan assay and provides a reliable p-value summarizing the whole experiment. The analysis also included Fisher's Exact Test that calculated the significance of survival function comparisons at multiple specific time points throughout the experiment, rather than for the overall lifespan. The results of the analysis are shown below in Tables 10-17.
Phenotypic screening was carried out as described in EXAMPLE 2 for various individual compounds of the N357 formulation. […] Alpha lipoic acid was sourced from PureBulk™ USA as a racemic mix of R and S stereoisomers and was assigned a sample number of N198. Hesperidin was sourced from Sigma Aldrich at ≥80% purity and was assigned a sample number of N347. […]

Oc1ccc(/C=C/c2cc(O)cc(O)c2)cc1 [Resveratrol, 3,5,4′-trihydroxy-trans-stilbene]
NF-κB % Inhibition (human NF-κB): −50% | mTOR inhibition (mTOR; applied to isolated cells in culture): inhibit mTOR | mTOR inhibition, mitophagy and mitochondrial turnover (mTOR): inhibit mTOR, up-regulate mitophagy, and increase the rate of mitochondrial turnover | activation of Nrf2 (Nrf2; 10 μM and 1): demonstrated activation of Nrf2 | concentration with more activation of Nrf2 (Nrf2; of 10 μM and 1): 10 µM | NF-κB % Live Cell ([1]; 0.28 μg/ml (resveratrol series)): 100% | NF-κB % Live Cell ([1]; 0.85 μg/ml): 100% | Statistically Significant Result (C. elegans strain CB5586; 0.1 mg/ml compared to DMSO control): No statistical difference | effect on chronological lifespan (C. elegans strain CB5586; 0.1 and 10 mg/ml tested): significant positive and dose-dependent increase of chronological lifespan
